The values that follow are results of earlier work, collected in patent publication US20100286187A1, “METHOD OF PREDICTING SURVIVAL OF A NON-SMALL-CELL LUNG CANCER PATIENT TO A CHEMOTHERAPEUTIC TREATMENT” (PANGAEA BIOTECH S.A., priority 2006, published 2010).

Data set [1] concerns non-small cell lung cancer (NSCLC) patients. Conditions: single agent, previously untreated NSCLC patients.
The test system of data set [2] is non-small cell lung cancer (NSCLC). Conditions: randomized study, per arm.

With `CC(=O)O[C@@]12CO[C@@H]1C[C@H](O)[C@@]1(C)C(=O)[C@H](O)C3=C(C)[C@@H](OC(=O)[C@H](O)[C@@H](NC(=O)OC(C)(C)C)c4ccccc4)C[C@@](O)([C@@H](OC(=O)c4ccccc4)[C@H]21)C3(C)C` [Docetaxel], the Response rates in data set [1] is 21-38%.

In the case of paclitaxel/carboplatin, the Median survival in data set [2] is given as 8.2 months.
